Measurements published in patent US9227971B2, “Pyrazolo[1,5-a]pyrimidine compounds as mTOR inhibitors” (Merck Sharp & Dohme Corp., priority 2010, dated 2016).
Like-named read-outs stand apart in the source and are kept apart here.

Assays:
[1] = test system: phosphorylated AKT Ser473 (pAKT S473), mTORC2 activity, PC3 cells; experiment: mTOR target engagement assay, immunofluorescent cell-based, pAKT S473 readout (mTORC2 activity)
Procedure, shortened: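 After blocking, cells were stained overnight at 4 °C with anti-pAKT S473 antibody, then a fluorescent secondary; inhibition was read as reduced fluorescence intensity.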

[2] = test system: phosphorylated 4E-BP1 Thr37/46 (p4E-BP1 Thr37/46), mTORC1 activity, PC3 cells; experiment: mTOR target engagement assay, immunofluorescent cell-based, p4E-BP1 Thr37/46 readout (mTORC1 activity); conditions: read-out: p4E-BP1 Thr37/46 IC50
Procedure, shortened: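 Read-out is fluorescence intensity of immunostained p4E-BP1 Thr37/46 in fixed PC3 cells, fitted to a logistic curve for IC50 with DMSO-only wells as top. Cells had been exposed to serial compound dilutions for ninety minutes at 37° C in 5% FBS medium with 0.25% DMSO.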

[3] = Homo sapiens, PC-3, Table 7-9 (no column head printed; column order as in the neighbouring tables), PC3 cells

SMILES	IC50 ([1]; Homo sapiens, PC-3, PC3 cells)	IC50 ([2]; Homo sapiens, PC-3, PC3 cells)	further results
CC(=O)c1c([C@@H]2C[C@H]3CC[C@@H](C2)N3C(=O)c2nnc[nH]2)nc2c(-c3ccc(C(O)CO)nc3)cnn2c1N (stereo partly drawn) [Compound 7.52, 1-(5-((1R,3s,5S)-8-(4H-1,2,4-triazole-3-carbonyl)-8-azabicyclo[3.2.1]octan-3-yl)-7-amino-3-(6-(1,2-dihydroxyethyl)pyridin-3-yl)pyrazolo[1,5-a]pyrimidin-6-yl)ethanone]	–	–	IC50 [1, 3]: 1000 to 10000 nM; IC50 [2, 3]: 1000 to 10000 nM
CS(=O)(=O)c1c([C@H]2CC3CC[C@H](C2)N3C(=O)c2nnc[nH]2)nc2c(-c3cnc4c(c3)CCCC4O)cnn2c1N (stereo partly drawn) [Compound 7.53, ((1R,3s,5S)-3-(7-amino-3-(8-hydroxy-5,6,7,8-tetrahydroquinolin-3-yl)-6-(methylsulfonyl)pyrazolo [1,5-a]pyrimidin-5-yl)-8-azabicyclo[3.2.1]octan-8-yl)(4H-1,2,4-triazol-3-yl)methanone]	100 to 1000 nM	100 to 1000 nM	–
Nc1c(C2CC2)c([C@H]2CC3CC[C@H](C2)N3C(=O)c2nnc[nH]2)nc2c(-c3cnc4c(c3)CCCC4O)cnn12 (stereo partly drawn) [Compound 7.54, ((1R,3s,5S)-3-(7-amino-6-cyclopropyl-3-(8-hydroxy-5,6,7,8-tetrahydroquinolin-3-yl)pyrazolo[1,5-a]pyrimidin-5-yl)-8-azabicyclo[3.2.1]octan-8-yl)(4H-1,2,4-triazol-3-yl)methanone]	1 to 100 nM	1 to 100 nM	–
CC1(O)CCCc2cc(-c3cnn4c(N)c(C5CC5)c([C@H]5CC6CC[C@H](C5)N6C(=O)c5nnc[nH]5)nc34)cnc21 (stereo partly drawn) [Compound 7.55, ((1R,3s,5S)-3-(7-amino-6-cyclopropyl-3-(8-hydroxy-8-methyl-5,6,7,8-tetrahydroquinolin-3-yl)pyrazolo[1,5-a]pyrimidin-5-yl)-8-azabicyclo[3.2.1]octan-8-yl)(4H-1,2,4-triazol-3-yl)methanone]	100 to 1000 nM	100 to 1000 nM	–
[2H]C1(O)CCCc2cc(-c3cnn4c(N)c(C5CC5)c([C@H]5CC6CC[C@H](C5)N6C(=O)c5nnc[nH]5)nc34)cnc21 (stereo partly drawn) [Compound 7.56, DEUTERATED-(3- EXO)-3-[7-AMINO-6- CYCLOPROPYL-3- (5,6,7,8- TETRAHYDRO-8- HYDROXY-3- QUINOLINYL- (D))PYRAZOLO[1,5- a]PYRIMIDIN-5-YL]-8- (4H-1,2,4-TRIAZOL-3- YLCARBONYL)-8- AZABICYCLO[3.2.1] OCTANE]	1 to 100 nM	1 to 100 nM	–
[2H]C1(O)CCCc2cc(-c3cnn4c(N)c(C(C)=O)c([C@H]5CC6CC[C@H](C5)N6C(=O)c5nnc[nH]5)nc34)cnc21 (stereo partly drawn) [Compound 7.57, DEUTERATED-(3- EXO)-3-[6-ACETYL-7- AMINO-3-(5,6,7,8- TETRAHYDRO-8- HYDROXY-3- QUINOLINYL- (D))PYRAZOLO[1,5- a]PYRIMIDIN-5-YL]-8- (4H-1,2,4-TRIAZOL-3- YLCARBONYL)-8- AZABICYCLO[3.2.1] OCTANE]	100 to 1000 nM	1 to 100 nM	–
CC(=O)c1c([C@@H]2C[C@H]3CC[C@@H](C2)N3C(=O)c2nnc[nH]2)nc2c(-c3cnc4c(c3)CCCC4O)cnn2c1N (stereo partly drawn) [Compound 7.58, 1-(5-((1R,3s,5S)-8-(4H-1,2,4-triazole-3-carbonyl)-8-azabicyclo[3.2.1]octan-3-yl)-7-amino-3-(8-hydroxy-5,6,7,8-tetrahydroquinolin-3-yl)pyrazolo[1,5-a]pyrimidin-6-yl)ethanone]	–	1 to 100 nM	IC50 ([1]; PC3 cells): 1 to 100 nM
CC(=O)c1c([C@@H]2C[C@H]3CC[C@@H](C2)N3C(=O)c2nnc[nH]2)nc2c(-c3cnc4c(c3)CCCC4O)cnn2c1N (stereo partly drawn) [Compound 7.59, 1-(5-((1R,3s,5S)-8-(4H-1,2,4-triazole-3-carbonyl)-8-azabicyclo[3.2.1]octan-3-yl)-7-amino-3-(8-hydroxy-5,6,7,8-tetrahydroquinolin-3-yl)pyrazolo[1,5-a]pyrimidin-6-yl)ethanone]	–	–	IC50 ([1]; PC3 cells): 100 to 1000 nM; IC50 ([2]; PC3 cells): 1 to 100 nM
Nc1c(C2CC2)c([C@H]2CC3CC[C@H](C2)N3C(=O)c2nnc[nH]2)nc2c(-c3cnc4c(c3)CCC4O)cnn12 (stereo partly drawn) [Compound 7.61, ((1R,3s,5S)-3-(7-amino-6-cyclopropyl-3-(7-hydroxy-6,7-dihydro-5H-cyclopenta[b]pyridin-3-yl)pyrazolo[1,5-a]pyrimidin-5-yl)-8-azabicyclo[3.2.1]octan-8-yl)(4H-1,2,4-triazol-3-yl)methanone]	1 to 100 nM	1 to 100 nM	–
CS(=O)(=O)c1c([C@H]2CC3CC[C@H](C2)N3C(=O)c2nnc[nH]2)nc2c(-c3cnc4c(c3)CCC4O)cnn2c1N (stereo partly drawn) [Compound 7.62, ((1R,3s,5S)-3-(7-amino-3-(7-hydroxy-6,7-dihydro-5H-cyclopenta[b]pyridin-3-yl)-6-(methylsulfonyl)pyrazolo [1,5-a]pyrimidin-5-yl)-8-azabicyclo[3.2.1]octan-8-yl)(4H-1,2,4-triazol-3-yl)methanone]	1000 to 10000 nM	1000 to 10000 nM	–
CC(=O)c1c([C@H]2CC3CC[C@H](C2)N3C(=O)c2nnc[nH]2)nc2c(-c3cnc4c(c3)OCCC4O)cnn2c1N (stereo partly drawn) [Compound 7.63, 1-(5-((1R,3s,5S)-8-(4H-1,2,4-triazole-3-carbonyl)-8-azabicyclo[3.2.1]octan-3-yl)-7-amino-3-(4-hydroxy-3,4-dihydro-2H-pyrano[3,2-b]pyridin-7-yl)pyrazolo[1,5-a]pyrimidin-6-yl)ethanone]	100 to 1000 nM	1 to 100 nM	–
Nc1c(C2CC2)c([C@H]2CC3CC[C@H](C2)N3C(=O)c2nnc[nH]2)nc2c(-c3cnc4c(c3)OCCC4O)cnn12 (stereo partly drawn) [Compound 7.64, ((1R,3s,5S)-3-(7-amino-6-cyclopropyl-3-(4-hydroxy-3,4-dihydro-2H-pyrano[3,2-b]pyridin-7-yl)pyrazolo[1,5-a]pyrimidin-5-yl)-8-azabicyclo[3.2.1]octan-8-yl)(4H-1,2,4-triazol-3-yl)methanone]	100 to 1000 nM	100 to 1000 nM	–
CC(=O)c1c([C@H]2CC3CC[C@H](C2)N3C(=O)c2nnc[nH]2)nc2c(-c3ccc(C(O)C(F)(F)F)nc3)cnn2c1N (stereo partly drawn) [Compound 7.65, 1-(5-((1R,3s,5S)-8-(4H-1,2,4-triazole-3-carbonyl)-8-azabicyclo[3.2.1]octan-3-yl)-7-amino-3-(6-(2,2,2-trifluoro-1-hydroxyethyl)pyridin-3-yl)pyrazolo[1,5-a]pyrimidin-6-yl)ethanone]	100 to 1000 nM	100 to 1000 nM	–
CC(=O)c1c([C@@H]2C[C@H]3CC[C@@H](C2)N3C(=O)c2cc[nH]n2)nc2c(-c3ccc(C(O)C(F)(F)F)nc3)cnn2c1N (stereo partly drawn) [Compound 7.66, 1-(5-((1R,3s,5S)-8-(1H-pyrazole-3-carbonyl)-8-azabicyclo[3.2.1]octan-3-yl)-7-amino-3-(6-(2,2,2-trifluoro-1-hydroxyethyl)pyridin-3-yl)pyrazolo[1,5-a]pyrimidin-6-yl)ethanone]	1000 to 10000 nM	100 to 1000 nM	–
CC(=O)c1c([C@@H]2C[C@H]3CC[C@@H](C2)N3C(=O)CO)nc2c(-c3ccc(C(O)C(F)(F)F)nc3)cnn2c1N (stereo partly drawn) [Compound 7.67, 1-((1R,3s,5S)-3-(6-acetyl-7-amino-3-(6-(2,2,2-trifluoro-1-hydroxyethyl)pyridin-3-yl)pyrazolo[1,5-a]pyrimidin-5-yl)-8-azabicyclo[3.2.1]octan-8-yl)-2-hydroxyethanone]	1000 to 10000 nM	100 to 1000 nM	–
CS(=O)(=O)c1c([C@H]2CC3CC[C@H](C2)N3C(=O)c2cc[nH]n2)nc2c(-c3ccc(C(O)C(F)(F)F)nc3)cnn2c1N (stereo partly drawn) [Compound 7.69, ((1R,3s,5S)-3-(7-amino-6-(methylsulfonyl)-3-(6-(2,2,2-trifluoro-1-hydroxyethyl)pyridin-3-yl)pyrazolo[1,5-a]pyrimidin-5-yl)-8-azabicyclo[3.2.1]octan-8-yl)(1H-pyrazol-3-yl)methanone]	1000 to 10000 nM	1000 to 10000 nM	–
CS(=O)(=O)c1c([C@@H]2C[C@H]3CC[C@@H](C2)N3C(=O)CO)nc2c(-c3ccc(C(O)C(F)(F)F)nc3)cnn2c1N (stereo partly drawn) [Compound 7.70, 1-((1R,3s,5S)-3-(7-amino-6-(methylsulfonyl)-3-(6-(2,2,2-trifluoro-1-hydroxyethyl)pyridin-3-yl)pyrazolo[1,5-a]pyrimidin-5-yl)-8-azabicyclo[3.2.1]octan-8-yl)-2-hydroxyethanone]	1000 to 10000 nM	1000 to 10000 nM	–
Cc1nnc(C(=O)N2[C@@H]3CC[C@H]2C[C@H](c2nc4c(-c5ccc(C6(O)CCC6)nc5)cnn4c(N)c2C2CC2)C3)[nH]1 [Compound 7.71, ((1R,3s,5S)-3-(7-amino-6-cyclopropyl-3-(6-(1-hydroxycyclobutyl)pyridin-3-yl)pyrazolo[1,5-a]pyrimidin-5-yl)-8-azabicyclo[3.2.1]octan-8-yl)(5-methyl-4H-1,2,4-triazol-3-yl)methanone]	100 to 1000 nM	100 to 1000 nM	–
Nc1c(C2CC2)c([C@@H]2C[C@H]3CC[C@@H](C2)N3C(=O)CO)nc2c(-c3ccc(C4(O)CCC4)nc3)cnn12 [Compound 7.72, 1-((1R,3s,5S)-3-(7-amino-6-cyclopropyl-3-(6-(1-hydroxycyclobutyl)pyridin-3-yl)pyrazolo[1,5-a]pyrimidin-5-yl)-8-azabicyclo[3.2.1]octan-8-yl)-2-hydroxyethanone]	100 to 1000 nM	100 to 1000 nM	–
